Drawing on patent publication US12325697B2 (Nimbus Clio, Inc., priority 2021, dated 2025), this text covers IC50 for 23 compounds.

The term pIC50 denotes the negative decadic logarithm of the IC50, by convention in mol/L.

The target in assay [1] is Recombinant human Cbl-b (aa 36-427) (Homo sapiens (Human), UniProt Q13191). The assay can be described thus: Cbl-b Biochemical Assay (TR-FRET). As to conditions: read-out: TR-FRET hCbl-b IC50. Put shortly: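 Two-step TR-FRET: 6 nM biotinylated Cbl-b preincubated 30-60 min with compound, then 60 min at RT with 1-2.5 nM Src-Zap70 and 0.5 mM ATP in HEPES pH 7.0 buffer, 1% DMSO. Stopped with 5 mM EDTA plus 100 nM UBE2D2-Ub-FL-BODIPY and 1 nM streptavidin-Tb, 60 min; 520 nm signal; IC50 from 4-parameter fit.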
Recombinant human Cbl-b (aa 36-427), sequence (Q13191 36-427): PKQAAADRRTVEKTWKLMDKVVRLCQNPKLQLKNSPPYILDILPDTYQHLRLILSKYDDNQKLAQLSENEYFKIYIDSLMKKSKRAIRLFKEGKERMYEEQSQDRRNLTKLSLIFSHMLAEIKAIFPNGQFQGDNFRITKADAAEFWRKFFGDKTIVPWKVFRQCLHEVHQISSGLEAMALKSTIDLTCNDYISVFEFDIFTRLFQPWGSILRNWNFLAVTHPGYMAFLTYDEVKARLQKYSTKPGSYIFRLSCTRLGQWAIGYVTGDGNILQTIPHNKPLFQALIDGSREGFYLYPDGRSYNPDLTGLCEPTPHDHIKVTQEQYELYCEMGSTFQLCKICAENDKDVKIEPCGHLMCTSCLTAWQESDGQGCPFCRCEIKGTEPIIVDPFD

The target in assay [2] is Recombinant human c-Cbl (aa 47-435) (Homo sapiens (Human), UniProt P22681). The assay can be described thus: c-Cbl Biochemical Assay (TR-FRET). Put shortly:
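Biotinylated c-Cbl (6 nM) preincubated 30 min RT with compound, then reacted 60-90 min with Src-Zap70 (2.5-10 nM) and 0.5 mM ATP, pH 7.0 HEPES buffer. Stopped with EDTA; 100 nM Bodipy-ubiquitinated UBE2D2 binding read by TR-FRET after 60 min; IC50 from 4-parameter fit.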
In general terms: TR-FRET usually uses a lanthanide donor and a delayed reading to cut background.

pIC50: −log10 of the molar value.

Recombinant human c-Cbl (aa 47-435), sequence (P22681 47-435): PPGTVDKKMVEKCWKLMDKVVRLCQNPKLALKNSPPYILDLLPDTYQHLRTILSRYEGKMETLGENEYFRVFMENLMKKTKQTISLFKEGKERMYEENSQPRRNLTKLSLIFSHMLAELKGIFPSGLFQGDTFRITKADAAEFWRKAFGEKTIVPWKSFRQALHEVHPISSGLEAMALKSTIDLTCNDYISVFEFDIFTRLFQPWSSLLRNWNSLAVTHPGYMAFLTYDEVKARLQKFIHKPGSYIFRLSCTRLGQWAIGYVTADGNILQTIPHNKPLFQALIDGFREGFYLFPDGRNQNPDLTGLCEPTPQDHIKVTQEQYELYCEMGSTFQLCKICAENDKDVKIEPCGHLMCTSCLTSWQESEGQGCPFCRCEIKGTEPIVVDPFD

On to `Cn1cnnc1-c1cc(C#N)ccc1-c1cc(C2CC2)nc(N2Cc3c(F)cc(CN4CC5CC5C4)cc3C2=O)c1` (stereo not shown) [AKQ-2, 4-[2-(6-{3-Azabicyclo[3.1.0]hexan-3-ylmethyl}-4-fluoro-1-oxo-3H-isoindol-2-yl)-6-cyclopropylpyridin-4-yl]-3-(4-methyl-1,2,4-triazol-3-yl)benzonitrile], for which the pIC50 in assay [1] and in assay [2] was at least 6.70 in each case.
In the case of `Cn1cnnc1-c1cc(C#N)ccc1-c1cc(C2CC2)nc(N2Cc3c(cc(CNCCOC(F)(F)F)c(F)c3F)C2=O)c1` [ALY-2, 4-{2-Cyclopropyl-6-[4,5-difluoro-1-oxo-6-({[2-(trifluoromethoxy)ethyl]amino}methyl)-3H-isoindol-2-yl]pyridin-4-yl}-3-(4-methyl-1,2,4-triazol-3-yl)benzonitrile], the negative logarithm of the IC50 (pIC50) in assay [1] and in assay [2] was at least 6.70 each time.
Turning to `Cn1cnnc1-c1cc(C#N)ccc1-c1cc(C2CC2)nc(N2Cc3ccc(CNCC4(C)CCC4)cc3C2=O)c1` [ALP-1, 4-{2-Cyclopropyl-6-[6-({[(1-methylcyclobutyl)methyl]amino}methyl)-1-oxo-3H-isoindol-2-yl]pyridin-4-yl}-3-(4-methyl-1,2,4-triazol-3-yl)benzonitrile], the pIC50 in assay [1] and in assay [2] was at least 6.70 throughout.
Consider `Cn1cnnc1-c1cc(C#N)ccc1-c1cc(C2CC2)nc(N2Cc3c(F)cc(CNCC4CCC4)cc3C2=O)c1` [AKS-1, 4-[2-(6-{1[(Cyclobutylmethyl)amino]methyl}-4-fluoro-1-oxo-3H-isoindol-2-yl)-6-cyclopropylpyridin-4-yl]-3-(4-methyl-1,2,4-triazol-3-yl)benzonitrile], for which the pIC50 in assay [1] and in assay [2] was at least 6.70 throughout.
In the case of `Cn1cnnc1-c1cc(C#N)ccc1-c1cc(C2CC2)nc(N2Cc3c(F)cc(CNCC4COC4)cc3C2=O)c1` [ANB-1, 4-[2-Cyclopropyl-6-(4-fluoro-6-{[(oxetan-3-ylmethyl)amino]methyl}-1-oxo-3H-isoindol-2-yl)pyridin-4-yl]-3-(4-methyl-1,2,4-triazol-3-yl)benzonitrile], the pIC50 in assay [1] and in assay [2] was at least 6.70 throughout.
As to `COCCN(C)Cc1cc2c(c(F)c1F)CN(c1cc(-c3ccc(C#N)cc3-c3nncn3C)cc(C3CC3)n1)C2=O` [AMZ-3, 4-[2-Cyclopropyl-6-(4,5-difluoro-6-{[(2-methoxyethyl)(methyl)amino]methyl}-1-oxo-3H-isoindol-2-yl)pyridin-4-yl]-3-(4-methyl-1,2,4-triazol-3-yl)benzonitrile], the pIC50 in assay [1] and in assay [2] was at least 6.70 in each case.
Regarding `COCCNCc1ccc2c(c1)C(=O)N(c1cccc(-c3ccc(C#N)cc3-c3nncn3C)c1)C2` [AJF-1, 3′-(6-(((2-Methoxyethyl)amino)methyl)-1-oxoisoindolin-2-yl)-2-(4-methyl-4H-1,2,4-triazol-3-yl)-[1,1′-biphenyl]-4-carbonitrile], the pIC50 in assay [1] and in assay [2] was at least 6.70 throughout.
Take `Cn1cnnc1-c1cc(C#N)ccc1-c1cc(C2CC2)nc(N2Cc3ccc([C@H]4COC[C@@H](C5CCC5)N4)cc3C2=O)c1` (stereo in doubt) [AOR-1, rel-4-(2-{6-[(3R,5S)-5-Cyclobutylmorpholin-3-yl]-1-oxo-3H-isoindol-2-yl}-6-cyclopropylpyridin-4-yl)-3-(4-methyl-1,2,4-triazol-3-yl)benzonitrile]: the pIC50 in assay [1] and in assay [2] was at least 6.70 in each case.
In the case of `Cn1cnnc1-c1cc(C#N)ccc1-c1cc(C2CC2)nc(N2Cc3ccc(CO)cc3C2=O)c1` [AHV-1, 4-{2-Cyclopropyl-6-[6-(hydroxymethyl)-1-oxo-3H-isoindol-2-yl]pyridin-4-yl}-3-(4-methyl-1,2,4-triazol-3-yl)benzonitrile], the pIC50 in assay [1] and in assay [2] was at least 6.70 each time.
As to `Cn1cnnc1-c1cc(C#N)ccc1-c1cc(C2CC2)nc(N2Cc3ccc(OC[C@@H](O)CO)cc3C2=O)c1` [AJM-3, (S)-4-(2-Cyclopropyl-6-(6-(2,3-dihydroxypropoxy)-1-oxoisoindolin-2-yl)pyridin-4-yl)-3-(4-methyl-4H-1,2,4-triazol-3-yl)benzonitrile], the pIC50 in assay [1] and in assay [2] was at least 6.70 throughout.
With `Cn1cnnc1-c1cc(C#N)ccc1-c1cc(C2CC2)nc(N2Cc3c(F)cc(CN[C@]4(C)COC[C@@H]4O)cc3C2=O)c1` (relative stereo) [AOH-1, rel-4-{2-Cyclopropyl-6-[4-fluoro-6-({[(3R,4R)-4-hydroxy-3-methyloxolan-3-yl]amino}methyl)-1-oxo-3H-isoindol-2-yl]pyridin-4-yl}-3-(4-methyl-1,2,4-triazol-3-yl)benzonitrile], the pIC50 in assay [1] and in assay [2] was at least 6.70 in each case.
With `Cn1cnnc1-c1cc(C#N)ccc1-c1cc(C2CC2)nc(N2Cc3c(cc(COCC4(O)CCC4)cc3C(F)(F)F)C2=O)c1` [AHP-1, 4-(2-Cyclopropyl-6-(6-(((1-hydroxycyclobutyl)methoxy)methyl)-1-oxo-4-(trifluoromethyl)isoindolin-2-yl)pyridin-4-yl)-3-(4-methyl-4H-1,2,4-triazol-3-yl)benzonitrile], the pIC50 in assay [1] and in assay [2] was at least 6.70 in each case.
Take `C[C@@H](NCC1CCC1)c1ccc2c(c1)C(=O)N(c1cc(-c3ccc(C#N)cc3-c3nncn3C)cc(C3CC3)n1)C2` [AKA-1, (R)-4-(2-(6-(1-((Cyclobutylmethyl)amino)ethyl)-1-oxoisoindolin-2-yl)-6-cyclopropylpyridin-4-yl)-3-(4-methyl-4H-1,2,4-triazol-3-yl)benzonitrile]: the negative logarithm of the IC50 (pIC50) in assay [1] and in assay [2] was at least 6.70 each time.
On to `Cn1cnnc1-c1cc(C#N)ccc1-c1cc(C2CC2)nc(N2Cc3c(F)cc(CN4C[C@]5(C)C[C@H]4CO5)cc3C2=O)c1` [ANU-3, 4-(2-cyclopropyl-6-(4-fluoro-6-(((1S,4S)-1-methyl-2-oxa-5-azabicyclo[2.2.1]heptan-5-yl)methyl)-1-oxoisoindolin-2-yl)pyridin-4-yl)-3-(4-methyl-4H-1,2,4-triazol-3-yl)benzonitrile], for which the pIC50 in assay [1] and in assay [2] was at least 6.70 each time.
`COCCNCc1cc2c(c(F)c1F)CN(c1cc(-c3ccc(C#N)cc3-c3nncn3C)cc(C3CC3)n1)C2=O` [AMP-1, 4-[2-Cyclopropyl-6-(4,5-difluoro-6-{[(2-methoxyethyl)amino]methyl}-1-oxo-3H-isoindol-2-yl)pyridin-4-yl]-3-(4-methyl-1,2,4-triazol-3-yl)benzonitrile]: the pIC50 in assay [1] and in assay [2] was at least 6.70 throughout.
On to `Cn1cnnc1-c1cc(C#N)ccc1-c1cc(C2CC2)nc(N2Cc3ccc(OC[C@H](O)CO)cc3C2=O)c1` [AJN-3, (R)-4-(2-Cyclopropyl-6-(6-(2,3-dihydroxypropoxy)-1-oxoisoindolin-2-yl)pyridin-4-yl)-3-(4-methyl-4H-1,2,4-triazol-3-yl)benzonitrile], for which the pIC50 in assay [1] and in assay [2] was at least 6.70 in each case.
For `Cn1cnnc1-c1cc(Cl)ccc1-c1cc(C2CC2)nc(N2Cc3ccc(CNCC4CCC4)cc3C2=O)c1` [AIV-2, 2-(4-(4-Chloro-2-(4-methyl-4H-1,2,4-triazol-3-yl)phenyl) -6-cyclopropylpyridin-2-yl)-6-(((cyclobutylmethyl)amino)methyl) isoindolin-1-one], the pIC50 in assay [1] and in assay [2] was at least 6.70 in each case.
Turning to `Cn1cnnc1-c1cc(C#N)ccc1-c1cc(C2CC2)nc(N2Cc3c(F)cc(CN4CC[C@H]5OCC[C@H]54)cc3C2=O)c1` (single isomer, unassigned) [ANH-1], the pIC50 in assay [1] and in assay [2] was at least 6.70 throughout.
In the case of `COCCNCc1cc(Br)c2c(c1)C(=O)N(c1cc(-c3ccc(C#N)cc3-c3nncn3C)cc(C3CC3)n1)C2` [ALB-2, 4-[2-(4-Bromo-6-{[(2-methoxyethyl)amino]methyl}-1-oxo-3H-isoindol-2-yl)-6-cyclopropylpyridin-4-yl]-3-(4-methyl-1,2,4-triazol-3-yl)benzonitrile], the pIC50 in assay [1] and in assay [2] was at least 6.70 each time.
Take `CN(Cc1ccc2c(c1)C(=O)N(c1cc(-c3ccc(F)cc3-c3nncn3C)cc(C3CC3)n1)C2)CC1(O)CCC1` [AJS-1, 2-(6-Cyclopropyl-4-(4-fluoro-2-(4-methyl-4H-1,2,4-triazol-3-yl)phenyl)pyridin-2-yl)-6-((((1-hydroxycyclobutyl)methyl) (methyl)amino)methyl)isoindolin-1-one]: the pIC50 in assay [1] and in assay [2] was at least 6.70 throughout.
Regarding `CCOCCNCc1ccc2c(c1)C(=O)N(c1cc(-c3ccc(C#N)cc3-c3nncn3C)cc(C3CC3)n1)C2` [AIN-2, 4-[2-cyclopropyl-6-(6-{[(2-ethoxyethyl)amino]methyl}-1-oxo-3H-isoindol-2-yl)pyridin-4-yl]-3-(4-methyl-1,2,4-triazol-3-yl)benzonitrile], the pIC50 in assay [1] and in assay [2] was at least 6.70 throughout.
Take `C[C@H](NCC1CC1)c1ccc2c(c1)C(=O)N(c1cc(-c3ccc(C#N)cc3-c3nncn3C)cc(C3CC3)n1)C2` [AJK-1, (S)-4-(2-Cyclopropyl-6-(6-(1-((cyclopropylmethyl)amino)ethyl)-1-oxoisoindolin-2-yl)pyridin-4-yl)-3-(4-methyl-4H-1,2,4-triazol-3-yl)benzonitrile]: the pIC50 in assay [1] and in assay [2] was at least 6.70 each time.
In the case of `CCOc1cc(-c2ccc(F)cc2-c2nncn2C)cc(N2Cc3c(OC)cc(CN(C)CC4(O)CCC4)cc3C2=O)n1` [AJO-2, 2-(6-Ethoxy-4-(4-fluoro-2-(4-methyl-4H-1,2,4-triazol-3-yl)phenyl)pyridin-2-yl)-6-((((1-hydroxycyclobutyl)methyl)(methyl)amino)methyl)-4-methoxyisoindolin-1-one], the pIC50 in assay [1] and in assay [2] was at least 6.70 throughout.
